Measurements from ChEMBL document CHEMBL1828565, “Potential AMPK activators of cucurbitane triterpenoids from Siraitia grosvenorii Swingle” (Bioorg Med Chem, 2011).
Active and inactive are the calls of the source. The calls are words filed in the database; no cut-off is given here.

Legend:
[1] = target: T1, AMP-activated protein kinase, AMPK (Homo sapiens) (UniProt P54646+O43741+P54619+Q9UGJ0+Q9Y478+Q13131+Q9UGI9); test: Activation of AMPK in human HepG2 cells assessed as increase in AMPK phosphorylation at 1 to 20 uM after 30 mins by Western blotting; type: cell-based
[2] = target: T1, AMP-activated protein kinase, AMPK (Homo sapiens); test: Activation of AMPK in human HepG2 cells assessed as increase in AMPK phosphorylation at 10 uM after 30 mins by Western blotting; type: cell-based

| Compound | Activity [1] | Activity [2] |
| --- | --- | --- |
| C[C@H](CC[C@@H](O[C@@H]1O[C@H](CO[C@@H]2O[C@H](CO)[C@@H](O)[C@H](O)[C@H]2O)[C@@H](O)[C@H](O)[C@H]1O[C@@H]1O[C@H](CO)[C@@H](O)[C@H](O)[C@H]1O)C(C)(C)O)[C@H]1CC[C@@]2(C)[C@@H]3CC=C4[C@@H](CC[C@H](O[C@@H]5O[C@H](CO[C@@H]6O[C@H](CO)[C@@H](O)[C@H](O)[C@H]6O)[C@@H](O)[C@H](O)[C@H]5O)C4(C)C)[C@]3(C)[C@H](O)C[C@]12C | inactive | – |
| COC(C)(C)[C@H](O)CC[C@@H](C)[C@H]1CC[C@@]2(C)[C@@H]3CC=C4[C@@H](CC[C@H](O)C4(C)C)[C@]3(C)C(=O)C[C@]12C | Active | – |
| COc1ccc2cc3[n+](cc2c1OC)CCc1cc2c(cc1-3)OCO2 | Active | – |
| CC(C)C(=O)CC[C@@H](C)[C@H]1CC[C@@]2(C)[C@@H]3CC=C4[C@@H](CC[C@H](O)C4(C)C)[C@]3(C)[C@H](O)C[C@]12C | Active | – |
| CC(C)C(=O)CC[C@@H](C)[C@H]1CC[C@@]2(C)[C@@H]3CC=C4[C@@H](CC[C@H](O)C4(C)C)[C@]3(C)C(=O)C[C@]12C | Active | – |

The remaining lines, values ahead:

| Activity [1] | Activity [2] | Compound |
| --- | --- | --- |
| Active | – | C[C@H](CC[C@@H](O)C(C)(C)O)[C@H]1CC[C@@]2(C)[C@@H]3CC=C4[C@@H](CC[C@H](O)C4(C)C)[C@]3(C)[C@H](O)C[C@]12C |
| Active | – | C[C@H](CC[C@@H](O)C(C)(C)O)[C@H]1CC[C@@]2(C)[C@@H]3CC=C4[C@@H](CC[C@@H](O)C4(C)C)[C@]3(C)[C@H](O)C[C@]12C |
| Active | – | C[C@H](CC[C@@H](O)C(C)(C)O)[C@H]1CC[C@@]2(C)[C@@H]3CC=C4[C@@H](CC[C@H](O)C4(C)C)[C@]3(C)C(=O)C[C@]12C |
| – | Active | CC(C)C(=O)CC[C@@H](C)[C@H]1CC[C@@]2(C)[C@@H]3CC=C4[C@@H](CC[C@@H](O)C4(C)C)[C@]3(C)[C@H](O)C[C@]12C |
| Active | – | COC(C)(C)[C@H](O)CC[C@@H](C)[C@H]1CC[C@@]2(C)[C@@H]3CC=C4[C@@H](CC[C@H](O)C4(C)C)[C@]3(C)[C@H](O)C[C@]12C |
